The source of these data is patent US11236066B2, “Crystalline forms of niraparib tosylate” (Apotex Inc., priority 2019, dated 2022).

Structures are written as SMILES. Read-outs that look alike come from different tables or passages of the source.

The conditions of data set [1]: 1 g sample, agitated in ball mill 2 hrs at 30 Hz, ambient relative humidity 60%.
Protocol: Samples (1 g) were initially placed in a small glass dish inside a desiccator for 30 minutes. The initial electric field of each sample was then measured with a JCI 140 Static Monitor (John Chubb Instrumentation, England) wherein the height of the field meter from top of the glass dish was 2.5 cm. […] Each sample was then placed in a 20 mL plastic vial and agitated inside of a ball mill (Retsch Mixer Mill MM 301) for 2 hrs at 30 Hz. After the agitation period, each sample was returned to the glass dish and the electric field was measured. The ambient relative humidity during the experiments was 60%.
For data set [2] the following is noted: CHMP Assessment Report; cited from earlier work.
The conditions of data set [3]: cited from earlier work; for Hygroscopicity: description in WO 2018/183354 A1, 4-methylbenzenesulfonate.
For data set [4] the following is noted: 900 mL 0.01 N HCl buffer, 50 rpm, sample compressed at 1.5 metric tons for 1 minute. As to the method:
Intrinsic dissolution rate (IDR) measurements were performed using a Wood apparatus. Samples were prepared by compressing the sample at 1.5 metric tons for 1 minute. A dissolution medium consisting of 900 mL 0.01 N HCl buffer, and rotation speed of 50 rpm was used for each experiment.

`Cc1ccc(S(=O)(=O)O)cc1.NC(=O)c1cccc2cn(-c3ccc([C@@H]4CCCNC4)cc3)nc12` [Niraparib tosylate crystalline Form I, 2-{4-[(3S)-piperidin-3-yl]phenyl}-2H-indazole 7-carboxamide 4-methylbenzenesulfonate]: the “Electric Field After Agitation” value in data set [1] is given as 0.50 kV. Further, the “Biopharmaceutics Classification System (BCS) class” value in data set [2] is recorded as “Class II”. For the same molecule, in data set [3] (listed as crystalline Form I), the Hygroscopicity entry is recorded as “non-hygroscopic”. The “Intrinsic Dissolution Rate” value in data set [4] worked out at 0.1451 mg min^−1 cm^−2.

In the case of `Cc1ccc(S(=O)(=O)O)cc1.NC(=O)c1cccc2cn(-c3ccc([C@@H]4CCCNC4)cc3)nc12` [crystalline Form III, 2-{4-[(3S)-piperidin-3-yl]phenyl}-2H-indazole 7-carboxamide 4-methylbenzenesulfonate], in data set [3], the Hygroscopicity result is reported as “very hygroscopic”. In addition, in data set [3] (up to 95% relative humidity (RH)), the “Weight gain in DVS” value is reported as 15.8%.
